From article PMC4234442 (Journal of Medicinal Chemistry, 2014)
Where a name gives a salt, the structure may show the parent alone. Marks after values point to notes of the source that are not given here. Each block holds one molecule with its values, some of them ahead of it. Ends that are not written are not given here.

What was measured:
NPFF1-R [1] = molecular target: T1, NPFF1-R (Homo sapiens, UniProt Q9GZQ6); format: binding
NPFF2-R [2] = molecular target: T2, NPFF2-R (Homo sapiens, UniProt Q9Y5X5); format: binding
NPFF1-R [3] = molecular target: T1, NPFF1-R; experiment: [35S]GTPγS binding assay, membranes of NPFF1-R expressing CHO cells; format: biochemical; conditions: tested at 10 μM; % maximal activation
NPFF2-R [4] = molecular target: T2, NPFF2-R; experiment: [35S]GTPγS binding assay, membranes of NPFF2-R expressing CHO cells; format: biochemical; conditions: tested at 10 μM; % maximal activation
NPFF2-R [5] = molecular target: T2, NPFF2-R; conditions: cited from earlier work; for selectivity for the hNPFF2 subtype: radioligand competition binding assays
NPFF1-R [6] = molecular target: T1, NPFF1-R; format: cell-based
NPFF1-R [7] = molecular target: T1, NPFF1-R; conditions: read-out: hNPFF1-R Ki; radioligand displacement assays; cited from earlier work
NPFF1-R [8] = molecular target: T1, NPFF1-R; conditions: read-out: cAMP hNPFF1-R antagonist activity EC50; data taken from ref 15; cited from earlier work
NPFF2-R [9] = molecular target: T2, NPFF2-R; format: binding; remark: listed apart in the source
NPFF2-R [10] = molecular target: T2, NPFF2-R; format: cell-based
[11] = molecular target: membrane of rat spinal cord; conditions: read-out: Ki in the membrane of rat spinal cord; cited from earlier work

T2 sequence (Q9Y5X5 whole entry): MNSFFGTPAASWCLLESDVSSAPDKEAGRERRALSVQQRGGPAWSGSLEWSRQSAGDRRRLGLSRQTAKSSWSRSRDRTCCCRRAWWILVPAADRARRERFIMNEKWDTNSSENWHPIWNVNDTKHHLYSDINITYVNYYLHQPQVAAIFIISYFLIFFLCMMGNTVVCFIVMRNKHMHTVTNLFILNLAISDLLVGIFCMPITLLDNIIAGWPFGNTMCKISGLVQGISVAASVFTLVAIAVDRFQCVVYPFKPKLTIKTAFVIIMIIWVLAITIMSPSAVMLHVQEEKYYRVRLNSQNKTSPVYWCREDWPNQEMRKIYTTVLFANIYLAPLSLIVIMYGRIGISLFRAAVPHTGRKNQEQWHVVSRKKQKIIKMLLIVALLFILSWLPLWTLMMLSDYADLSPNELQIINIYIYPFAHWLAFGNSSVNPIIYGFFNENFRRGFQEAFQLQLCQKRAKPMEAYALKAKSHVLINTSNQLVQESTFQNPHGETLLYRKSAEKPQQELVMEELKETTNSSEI
T1 sequence (Q9GZQ6 whole entry): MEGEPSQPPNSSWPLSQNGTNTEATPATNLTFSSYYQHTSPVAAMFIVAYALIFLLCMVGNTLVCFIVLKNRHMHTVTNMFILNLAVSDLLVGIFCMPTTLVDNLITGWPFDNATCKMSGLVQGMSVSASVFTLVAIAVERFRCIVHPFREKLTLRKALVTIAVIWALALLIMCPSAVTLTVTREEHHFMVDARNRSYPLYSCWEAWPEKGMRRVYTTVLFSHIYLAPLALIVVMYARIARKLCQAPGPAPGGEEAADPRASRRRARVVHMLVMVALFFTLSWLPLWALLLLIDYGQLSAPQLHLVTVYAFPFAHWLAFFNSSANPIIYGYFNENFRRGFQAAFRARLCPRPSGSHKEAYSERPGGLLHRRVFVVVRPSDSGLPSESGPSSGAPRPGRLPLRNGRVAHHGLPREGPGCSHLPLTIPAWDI

Molecule: N=C(N)NCC(=O)NCC1(Nc2ccc(Cl)c(Cl)c2)CCN(Cc2ccccc2)CC1 [30d, N-((1-Benzyl-4-(3,4-dichlorophenylamino)piperidin-4-yl)methyl)-2-guanidinoacetamide Tritriflate]
ratio, preference for NPFF1 (NPFF1-R [1]): 2.1-fold (NPFF1)

fold loss of affinity at NPFF2-R relative to 53a (NPFF2-R [2]): 2.7 fold
Molecule: N=C(N)NCC(=O)NCC1(Cc2ccc(Cl)c(Cl)c2)CCN(Cc2ccccc2)CC1 [53b, N-((1-Benzyl-4-(3,4-dichlorobenzyl)piperidin-4-yl)methyl)-2-guanidinoacetamide Ditriflate]

% stimulation (increase) of [35S]GTPγS binding at NPFF1-R (NPFF1-R [3]): 36 ^d %
% stimulation (increase) of [35S]GTPγS binding at NPFF2-R (NPFF2-R [4]): 184 ^d %
Molecule: N=C(N)NCCC[C@H](N)C(=O)NCC1(Nc2ccccc2)CCN(Cc2ccccc2)CC1 [7b, 2-Amino-N-((1-benzyl-4-(phenylamino)piperidin-4-yl)methyl)-5-guanidinopentanamide Hydrochloride]

Molecule: COc1cccc(NC2(CNC(=O)CNC(=N)N)CCN(Cc3ccccc3)CC2)c1 [30c, N-((1-Benzyl-4-(3-methoxyphenylamino)piperidin-4-yl)methyl)-2-guanidinoacetamide Tritriflate]
ratio, preference for NPFF1 (NPFF1-R [1]): 4.4-fold (NPFF1)

Molecule: AGEGLSSPFWSLAAPQRFa [hNPAF]
selectivity for the hNPFF2 subtype (NPFF2-R [5]): 10.1 fold

Molecule: n-adamantanecarbonyl-Arg-Phe-NH2 [RF9]
cAMP hNPFF1-R Emax, % (NPFF1-R [6]): 79 ± 5 ^c %
Ki (NPFF1-R [7]): 58 ± 5 nM
EC50 (NPFF1-R [8]): 4700 ± 1200 nM
Ki (NPFF2-R [5]; read-out: hNPFF2-R Ki, radioligand displacement assays): 75 ± 9 nM

fold loss of affinity at NPFF2-R relative to 7b (NPFF2-R [9]): 7 fold
Molecule: N=C(N)NCCC[C@H](N)C(=O)NCC1CCN(Cc2ccccc2)CC1 [compound 15, 2-Amino-N-((1-benzylpiperidin-4-yl)methyl)-5-guanidinopentanamide Hydrochloride]

fold loss of affinity at NPFF2-R relative to 53a (NPFF2-R [2]): 6.8 fold
ratio, preference for NPFF2 (NPFF2-R [2]): 1.5-fold (NPFF2)
Molecule: N=C(N)NCC(=O)NCC1(Cc2ccc3ccccc3c2)CCN(Cc2ccccc2)CC1 [53c, N-((1-Benzyl-4-(naphthalen-2-ylmethyl)piperidin-4-yl)methyl)-2-guanidinoacetamide Ditriflate]

ratio, preference for NPFF1 (NPFF1-R [1]): 3-fold (NPFF1)
fold loss of affinity at NPFF2-R relative to 42 (NPFF2-R [2]): 5.5 fold
Molecule: N=C(N)NCC(=O)NCC1(CCc2ccccc2)CCN(Cc2ccccc2)CC1 [compound 43, N-((1-Benzyl-4-phenethylpiperidin-4-yl)methyl)-2-guanidinoacetamide Ditriflate]

Molecule: N=C(N)NCC(=O)NCC1(Nc2ccccc2)CCN(Cc2ccc(Br)cc2)CC1 [49f, N-((1-(4-Bromobenzyl)-4-(phenylamino)piperidin-4-yl)methyl)-2-guanidinoacetamide Tritriflate]
fold gain of affinity at NPFF1-R compared with lead 21 (NPFF1-R [1]): 2.3–2.8 fold

Molecule: N=C(N)NCCNC(=O)C1(Nc2ccccc2)CCN(Cc2ccccc2)CC1 [compound 46, 1-Benzyl-N-(2-guanidinoethyl)-4-(phenylamino)piperidine-4-carboxamide Tritriflate]
fold gain of affinity at NPFF1-R compared with lead 21 (NPFF1-R [1]): 4 fold

fold gain of affinity at NPFF2-R compared with lead 21 (NPFF2-R [2]): 5 fold
Highest concentration showing no agonist activity when tested alone, hNPFF2-R (NPFF2-R [10]): 1K ^f
Molecule: N=C(N)NCC(=O)NCC1(Cc2ccccc2)CCN(Cc2ccccc2)CC1 [compound 42, N-((1,4-Dibenzylpiperidin-4-yl)methyl)-2-guanidinoacetamide Ditriflate]

fold loss of affinity at NPFF1-R relative to lead 21 (NPFF1-R [1]): 1.6 fold
ratio, preference for NPFF1 (NPFF1-R [1]): 6.9-fold (NPFF1)
fold loss of affinity at NPFF2-R relative to lead 21 (NPFF2-R [2]): 8.7 fold
Molecule: N=C(N)NCC(=O)NCC1(c2ccccc2)CCN(Cc2ccccc2)CC1 [compound 34, N-((1-Benzyl-4-phenylpiperidin-4-yl)methyl)-2-guanidinoacetamide Ditriflate]

Molecule: N=C(N)NCC(=O)NCC1(Nc2ccccc2)CCN(CCc2ccccc2)CC1 [49c, 2-Guanidino-N-((1-phenethyl-4-(phenylamino)piperidin-4-yl)methyl)acetamide Tritriflate]
fold gain of affinity at NPFF2-R compared with lead 21 (NPFF2-R [2]): 1.2–3.1 fold

Molecule: SQAFLFQPQRFa (SQAFLFQPQRF-NH2; UniProt O15130 66-76, looked up) [hNPFF]
selectivity for the hNPFF2 subtype (NPFF2-R [5]): 10.7 fold

Activity alone at NPFF1-R (NPFF1-R [6]): low activity
fold gain of affinity at NPFF2-R compared with lead 21 (NPFF2-R [2]): 14 fold
fold increase in affinity at NPFF2-R relative to lead 42 (NPFF2-R [2]): 2.8 fold
Activity alone at NPFF2-R (NPFF2-R [10]): low activity
Molecule: N=C(N)NCC(=O)NCC1(Cc2cccc3ccccc23)CCN(Cc2ccccc2)CC1 [53a, N-((1-Benzyl-4-(naphthalen-1-ylmethyl)piperidin-4-yl)methyl)-2-guanidinoacetamide Tritriflate]

Molecule: N=C(N)NCC(=O)NCC1(Nc2cccc3ccccc23)CCN(Cc2ccccc2)CC1 [30a, N-((1-Benzyl-4-(naphthalen-1-ylamino)piperidin-4-yl)methyl)-2-guanidinoacetamide Tritriflate]
ratio, preference for NPFF1 (NPFF1-R [1]): 3.3-fold (NPFF1)
Highest concentration showing no agonist activity when tested alone, hNPFF1-R (NPFF1-R [6]): >10K ^f

Molecule: N=C(N)NCC(=O)NCC1(Nc2ccccc2)CCN(Cc2cccc3ccccc23)CC1 [49d, 2-Guanidino-N-((1-(naphthalen-1-ylmethyl)-4-(phenylamino)piperidin-4-yl)methyl)acetamide Tritriflate]
fold gain of affinity at NPFF2-R compared with lead 21 (NPFF2-R [2]): 1.2–3.1 fold

Molecule: COc1cc(NC2(CNC(=O)CNC(=N)N)CCN(Cc3ccccc3)CC2)cc(OC)c1 [30b, N-((1-Benzyl-4-(3,5-dimethoxyphenylamino)piperidin-4-yl)methyl)-2-guanidinoacetamide Tritriflate]
ratio, preference for NPFF1 (NPFF1-R [1]): 8.7-fold (NPFF1)
Highest concentration showing no agonist activity when tested alone, hNPFF1-R (NPFF1-R [6]): >10K ^f

Molecule: N=C(N)NCC(=O)NCC1(Nc2ccccc2)CCN(CC2CCCCC2)CC1 [49b, N-((1-(Cyclohexylmethyl)-4-(phenylamino)piperidin-4-yl)methyl)-2-guanidinoacetamide Tritriflate]
fold loss of affinity at NPFF1-R relative to lead 21 (NPFF1-R [1]): 5 fold
fold gain of affinity at NPFF2-R compared with lead 21 (NPFF2-R [2]): 1.2–3.1 fold

Molecule: N=C(N)NCC(=O)NCC1(Nc2ccccc2)CCN(Cc2ccc3ccccc3c2)CC1 [49e, 2-Guanidino-N-((1-(naphthalen-2-ylmethyl)-4-(phenylamino)piperidin-4-yl)methyl)acetamide Tritriflate]
fold gain of affinity at NPFF1-R compared with lead 21 (NPFF1-R [1]): 2.3–2.8 fold

Molecule: SLNFEELKDWGPKNVIKMSTPAVNKMPHSFANLPLRFa [hNPSF]
selectivity for the hNPFF2 subtype (NPFF2-R [5]): 1.2 fold

ratio, preference for NPFF1 (NPFF1-R [1]): 3-fold (NPFF1)
fold loss of affinity at NPFF2-R relative to 53a (NPFF2-R [2]): 30 fold
Molecule: N=C(N)NCC(=O)NCC1(Cc2ccc(-c3ccccc3)cc2)CCN(Cc2ccccc2)CC1 [53d, N-((1-Benzyl-4-(biphenyl-4-ylmethyl)piperidin-4-yl)methyl)-2-guanidinoacetamide Ditriflate]

Molecule: N=C(N)NCC(=O)NCC1(Nc2ccccc2)CCN(Cc2ccccc2)CC1 [compound 21, N-((1-Benzyl-4-(phenylamino)piperidin-4-yl)methyl)-2-guanidinoacetamide tritriflate]
fold increase in affinity at NPFF1-R compared with lead 7b (NPFF1-R [1]): 1.5 fold
Agonist activity alone at NPFF1-R (NPFF1-R [6]): weak partial agonist activity
fold increase in affinity at NPFF2-R compared with lead 7b (NPFF2-R [2]): 2.6 fold
% inhibition of forskolin-stimulated cAMP accumulation (cyclase) at NPFF2-R (NPFF2-R [10]): 20–25 ^e %
Agonist activity alone at NPFF2-R (NPFF2-R [10]): weak partial agonist activity

Molecule: FLFQPQRFa [NPFF]
Ki [11]: 0.21 nM
